Assay results: US20260297070A1, “CYCLIC [COMPOUND LEFT OUT] WRN INHIBITORS” (Nimbus Wadjet, Inc., priority 2023, published 2026)

The molecules below were run against T1, human Werner helicase (WRN-BV08, Uniprot Q14191, amino acids 517-1235 with L1074F point mutation) (Homo sapiens, UniProt Q14191, L1074F) (assay: WRN (BV08) ADP-Glo Assay). Conditions: 0.15 nM WRN, 5 μM ATP, 0.1 nM DNA duplex, 15 min preincubation, 60 min at 25° C., pH 7.5, 1% DMSO; read-out: ADP-Glo_hWRN_IC50.
T1 construct: Uniprot Q14191, amino acids 517-1235 with L1074F point mutation; TEV-cleavable 8×His (C, cleaved yes); made in house; host or cells: Sf9 insect cells (baculovirus)
T1 sequence (Q14191 with tags, fused parts or gaps L1074F limits assumed): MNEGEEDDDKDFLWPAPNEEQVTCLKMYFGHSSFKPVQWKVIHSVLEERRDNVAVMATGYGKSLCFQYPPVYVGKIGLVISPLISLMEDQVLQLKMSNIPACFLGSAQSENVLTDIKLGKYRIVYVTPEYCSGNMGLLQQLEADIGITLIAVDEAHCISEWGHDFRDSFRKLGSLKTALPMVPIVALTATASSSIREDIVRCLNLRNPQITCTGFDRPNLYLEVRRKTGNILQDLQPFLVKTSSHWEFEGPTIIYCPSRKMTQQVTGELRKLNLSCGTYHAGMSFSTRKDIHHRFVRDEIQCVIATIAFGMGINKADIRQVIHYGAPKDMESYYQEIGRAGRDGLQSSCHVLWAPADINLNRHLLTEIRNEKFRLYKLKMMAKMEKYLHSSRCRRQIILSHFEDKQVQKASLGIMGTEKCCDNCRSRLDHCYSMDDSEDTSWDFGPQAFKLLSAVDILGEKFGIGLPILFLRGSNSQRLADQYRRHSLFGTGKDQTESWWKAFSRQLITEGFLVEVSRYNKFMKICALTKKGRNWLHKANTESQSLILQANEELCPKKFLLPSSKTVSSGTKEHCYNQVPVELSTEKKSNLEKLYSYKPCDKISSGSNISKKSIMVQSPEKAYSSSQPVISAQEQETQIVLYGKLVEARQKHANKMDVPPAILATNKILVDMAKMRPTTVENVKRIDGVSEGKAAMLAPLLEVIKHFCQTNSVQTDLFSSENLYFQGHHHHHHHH
Assay type: biochemical
How it was run: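 ADP-Glo luminescence read-out of ATP hydrolysis. Conditions: 0.15 nM WRN, 5 μM ATP, 0.1 nM DNA duplex, 1% DMSO, 60 min at 25 °C after 15 min compound preincubation. Max/min controls were DMSO and 20 μM NSC-617145; IC50 from four-parameter fit.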

IC50 [µM] | SMILES
< 0.5 | O=C(Cn1cc(-c2ccc(F)c(F)c2)cn1)N(Cc1nc(C2CC2(F)F)cs1)C1C=CS(=O)(=O)C1 (centres unmarked) [I-718, N-{[4-(2,2-difluorocyclopropyl)-1,3-thiazol-2-yl]methyl}-2-[4-(3,4-difluorophenyl)-1H-pyrazol-1-yl]-N-(1,1-dioxo-2,3-dihydro-1lambda6-thiophen-3-yl)acetamide]
> 50 | O=C(Cc1csc(C2CC2)n1)N(Cc1ccncc1)C1C=CS(=O)(=O)C1 (centres unmarked) [I-438, 2-(2-cyclopropyl-1,3-thiazol-4-yl)-N-(1,1-dioxo-2,3-dihydro-1lambda6-thiophen-3-yl)-N-[(pyridin-4-yl)methyl]acetamide]
0.5 to 5 | COc1cc(CN(C(=O)Cc2ccc(-c3ccc(F)cc3)cc2F)C2C=CS(=O)(=O)C2)ccn1 (centres unmarked) [I-87, 2-{3,4′-difluoro-[1,1′-biphenyl]-4-yl}-N-(1,1-dioxo-2,3-dihydro-1lambda6-thiophen-3-yl)-N-[(2-methoxypyridin-4-yl)methyl]acetamide]
5 to 10 | CC1CC1c1ccc(CC(=O)N(Cc2ccncc2)C2C=CS(=O)(=O)C2)cc1 (centres unmarked) [I-245, N-(1,1-dioxo-2,3-dihydro-1lambda6-thiophen-3-yl)-2-[4-(2-methylcyclopropyl)phenyl]-N-[(pyridin-4-yl)methyl]acetamide]
> 50 | O=C(Cc1ccc(-n2cccn2)cc1)N(Cc1ccncc1)C1C=CS(=O)(=O)C1 (centres unmarked) [I-419, N-(1,1-dioxo-2,3-dihydro-1lambda6-thiophen-3-yl)-2-[4-(1H-pyrazol-1-yl)phenyl]-N-[(pyridin-4-yl)methyl]acetamide]
> 50 | COc1cc(CN(C(=O)C(OC2COC2)c2ccc(-c3ccc(F)c(F)c3)cc2F)[C@@H]2C=CS(=O)(=O)C2)ccn1 (single isomer, unassigned) [I-741, (2R*)-N-[(3R)-1,1-dioxo-2,3-dihydro-1lambda6-thiophen-3-yl]-N-[(2-methoxypyridin-4-yl)methyl]-2-(oxetan-3-yloxy)-2-{3,3′,4′-trifluoro-[1,1′-biphenyl]-4-yl}acetamide]
> 50 | O=C(Cc1ccc(-n2cccc2)cc1)N(Cc1ccnc2[nH]cnc12)C1C=CS(=O)(=O)C1 (centres unmarked) [I-472, N-(1,1-dioxo-2,3-dihydro-1lambda6-thiophen-3-yl)-N-({3H-imidazo[4,5-b]pyridin-7-yl}methyl)-2-[4-(1H-pyrrol-1-yl)phenyl]acetamide]
0.5 to 5 | Cc1cccn1-c1ccc(CC(=O)N(Cc2ccnc3c2CCC3O)C2C=CS(=O)(=O)C2)c(F)c1 (centres unmarked) [I-103, N-(1,1-dioxido-2,3-dihydrothiophen-3-yl)-2-(2-fluoro-4-(2-methyl-1H-pyrrol-1-yl)phenyl)-N-((7-hydroxy-6,7-dihydro-5H-cyclopenta[b]pyridin-4-yl)methyl)acetamide]
> 50 | O=C(c1ccc(-c2ccccc2)cn1)N(Cc1ccccc1)C1C=CS(=O)(=O)C1 (centres unmarked) [I-487, N-benzyl-N-(1,1-dioxo-2,3-dihydro-1lambda6-thiophen-3-yl)-5-phenylpyridine-2-carboxamide]
< 0.5 | O=C(Cn1cc(-c2cc(F)c(F)c(F)c2)cn1)N(Cc1ccc(Cc2ccncc2)cc1)C1C=CS(=O)(=O)C1 (centres unmarked) [I-782, N-(1,1-dioxo-2,3-dihydro-1lambda6-thiophen-3-yl)-N-({4-[(pyridin-4-yl)methyl]phenyl}methyl)-2-[4-(3,4,5-trifluorophenyl)-1H-pyrazol-1-yl]acetamide]
> 50 | O=C([C@H]1CC[C@@H](c2ccccc2)O1)N(Cc1ccncc1)C1C=CS(=O)(=O)C1 (mixture of isomers) [I-652, rac-(2R,5S)-N-(1,1-dioxo-2,3-dihydro-1lambda6-thiophen-3-yl)-5-phenyl-N-[(pyridin-4-yl)methyl]oxolane-2-carboxamide]
5 to 10 | N#Cc1cccn1-c1ccc(CC(=O)N(Cc2ccncc2)C2C=CS(=O)(=O)C2)cc1 (centres unmarked) [I-272, 2-[4-(2-cyano-1H-pyrrol-1-yl)phenyl]-N-(1,1-dioxo-2,3-dihydro-1lambda6-thiophen-3-yl)-N-[(pyridin-4-yl)methyl]acetamide]
5 to 10 | O=C(Cc1ccc(-c2cccc(F)c2F)cc1)N(Cc1ccncc1)C1C=CS(=O)(=O)C1 (centres unmarked) [I-261, 2-{2′,3′-difluoro-[1,1′-biphenyl]-4-yl}-N-(1,1-dioxo-2,3-dihydro-1lambda6-thiophen-3-yl)-N-[(pyridin-4-yl)methyl]acetamide]
> 50 | O=C(CCc1cnc2n1CCCCC2)N(Cc1ccncc1)C1C=CS(=O)(=O)C1 (centres unmarked) [I-560, N-(1,1-dioxo-2,3-dihydro-1lambda6-thiophen-3-yl)-3-{5H,6H,7H,8H,9H-imidazo[1,2-a]azepin-3-yl}-N-[(pyridin-4-yl)methyl]propanamide]
0.5 to 5 | COc1cc(CN(C(=O)C(c2ccc(-c3ccc(F)c(F)c3)cc2F)n2cc(C#N)cn2)[C@@H]2C=CS(=O)(=O)C2)ccn1 (stereo partly drawn) [I-706, 2-(4-cyano-1H-pyrazol-1-yl)-N-[(3R)-1,1-dioxo-2,3-dihydro-1lambda6-thiophen-3-yl]-N-[(2-methoxypyridin-4-yl)methyl]-2-{3,3′,4′-trifluoro-[1,1′-biphenyl]-4-yl}acetamide]
< 0.5 | COc1cc(CN(C(=O)C(c2ccc(-c3ccc(F)c(F)c3)cc2F)n2nccn2)[C@@H]2C=CS(=O)(=O)C2)ccn1 (stereo partly drawn) [I-733, N-[(3R)-1,1-dioxo-2,3-dihydro-1lambda6-thiophen-3-yl]-N-[(2-methoxypyridin-4-yl)methyl]-2-(2H-1,2,3-triazol-2-yl)-2-{3,3′,4′-trifluoro-[1,1′-biphenyl]-4-yl}acetamide]
0.5 to 5 | COc1cc(CN(C(=O)Cc2ccc(-c3ccc(F)cc3)cc2)C2C=CS(=O)(=O)C2)ccn1 (centres unmarked) [I-158, N-(1,1-dioxo-2,3-dihydro-1lambda6-thiophen-3-yl)-2-{4′-fluoro-[1,1′-biphenyl]-4-yl}-N-[(2-methoxypyridin-4-yl)methyl]acetamide]
0.5 to 5 | CCc1cccn1-c1ccc(CC(=O)N(Cc2ccnc(OC)c2)C2C=CS(=O)(=O)C2)c(F)c1 (centres unmarked) [I-204, N-(1,1-dioxo-2,3-dihydro-1lambda6-thiophen-3-yl)-2-[4-(2-ethyl-1H-pyrrol-1-yl)-2-fluorophenyl]-N-[(2-methoxypyridin-4-yl)methyl]acetamide]
10 to 50 | CS(=O)(=O)Nc1cccc(CN(C(=O)Cc2ccc(-n3cccc3)cc2)C2C=CS(=O)(=O)C2)c1 (centres unmarked) [I-344, N-(1,1-dioxo-2,3-dihydro-1lambda6-thiophen-3-yl)-N-[(3-methanesulfonamidophenyl)methyl]-2-[4-(1H-pyrrol-1-yl)phenyl]acetamide]
0.5 to 5 | O=C(Cc1ccc(-c2ccc(F)cc2)cc1)N(Cc1nc(C2CC2)cs1)C1C=CS(=O)(=O)C1 (centres unmarked) [I-88, N-[(4-cyclopropyl-1,3-thiazol-2-yl)methyl]-N-(1,1-dioxo-2,3-dihydro-1lambda6-thiophen-3-yl)-2-{4′-fluoro-[1,1′-biphenyl]-4-yl}acetamide]
0.5 to 5 | Cc1cccn1-c1ccc(C(C(=O)N(C)C)C(=O)N(Cc2ccnc(C(C)(C)O)c2)C2C=CS(=O)(=O)C2)c(F)c1 (centres unmarked) [I-174, N-(1,1-dioxo-2,3-dihydro-1lambda6-thiophen-3-yl)-2-[2-fluoro-4-(2-methyl-1H-pyrrol-1-yl)phenyl]-N-{[2-(2-hydroxypropan-2-yl)pyridin-4-yl]methyl}-N′,N′-dimethylpropanediamide]
10 to 50 | O=C(Cc1ccc(C23CC(C2)C3)cc1)N(Cc1ccncc1)C1C=CS(=O)(=O)C1 (centres unmarked) [I-347, 2-(4-{bicyclo[1.1.1]pentan-1-yl}phenyl)-N-(1,1-dioxo-2,3-dihydro-1lambda6-thiophen-3-yl)-N-[(pyridin-4-yl)methyl]acetamide]
< 0.5 | CC(C(=O)N(Cc1ccnc(C(C)(C)O)c1)[C@@H]1C=CS(=O)(=O)C1)n1ccc(-c2ccc(F)c(F)c2)cc1=O (single isomer, unassigned) [I-769]
10 to 50 | CC(C)(O)c1cc(CN(C(=O)Cc2ccc(-c3ccc(F)c(F)c3)cc2F)C2C=CS(=O)(=O)C2)ccn1 (single isomer, unassigned) [I-332]
> 50 | Cc1nc2cc(CC(=O)N(Cc3ccncc3)C3C=CS(=O)(=O)C3)ccc2o1 (centres unmarked) [I-610, N-(1,1-dioxo-2,3-dihydro-1lambda6-thiophen-3-yl)-2-(2-methyl-1,3-benzoxazol-5-yl)-N-[(pyridin-4-yl)methyl]acetamide]
> 50 | COc1cc(CN(C(=O)C(OC2CS(=O)(=O)C2)c2ccc(-c3ccc(F)c(F)c3)cc2F)[C@@H]2C=CS(=O)(=O)C2)ccn1 (single isomer, unassigned) [I-834, (2R*)-2-[(1,1-dioxo-1lambda6-thietan-3-yl)oxy]-N-[(3R)-1,1-dioxo-2,3-dihydro-1lambda6-thiophen-3-yl]-N-[(2-methoxypyridin-4-yl)methyl]-2-{3,3′,4′-trifluoro-[1,1′-biphenyl]-4-yl}acetamide]
< 0.5 | O=C(Cn1cc(-c2ccc(F)c(F)c2)cn1)N(Cc1nc(C2(F)CC2)cs1)C1C=CS(=O)(=O)C1 (centres unmarked) [I-726, 2-[4-(3,4-difluorophenyl)-1H-pyrazol-1-yl]-N-(1,1-dioxo-2,3-dihydro-1lambda6-thiophen-3-yl)-N-{[4-(1-fluorocyclopropyl)-1,3-thiazol-2-yl]methyl}acetamide]
> 50 | CS(=O)(=O)N1CCN(C(C(=O)N(Cc2ccncc2)C2C=CS(=O)(=O)C2)c2ccc(-n3cccc3)cc2)CC1 (centres unmarked) [I-554, N-(1,1-dioxo-2,3-dihydro-1lambda6-thiophen-3-yl)-2-(4-methanesulfonylpiperazin-1-yl)-N-[(pyridin-4-yl)methyl]-2-[4-(1H-pyrrol-1-yl)phenyl]acetamide]
> 50 | O=C(Cc1ccc(Oc2ccccc2)cc1)N(Cc1ccncc1)C1C=CS(=O)(=O)C1 (centres unmarked) [I-503, N-(1,1-dioxo-2,3-dihydro-1lambda6-thiophen-3-yl)-2-(4-phenoxyphenyl)-N-[(pyridin-4-yl)methyl]acetamide]
